Assay results: US20160115196A1, “SELF-ASSEMBLED MICRO-AND NANOSTRUCTURES” (NORTHWESTERN UNIVERSITY, priority 2013, published 2016)
Values belong to the compound of their own block, whether it stands above or below them. Where no end group is shown, it is not given here. [ ]: non-standard residue; d: D form. Dopa = N[C@@H](Cc1ccc(O)c(O)c1)C(=O)O

Assays:
[1] = Silver reduction / silver deposition assay; details: silver nitrate added to pre-formed assemblies; TEM, HR-SEM or E-SEM
Method: Silver reduction assay was performed with pre-prepared Fmoc-DOPA-DOPA hydrogels at a concentration of 5 mg/mL (8.35 mM). 50 μL of 13.2 mM silver nitrate were added to 500 μL hydrogel aliquots by gentle pipetting, resulting in 1.2 mM final concentration of silver nitrate. This solution was incubated at room temperature for several days. At different time points, 10 μL aliquots were taken for TEM analysis and negative staining was not applied. To examine silver reduction using UV-vis spectroscopy, silver nitrate was added to a 5 mg/mL hydrogel pre-prepared as described above and 150 μL aliquots of Fmoc-DOPA-DOPA hydrogel with or without silver nitrate were pipetted into a 96-well UV-Star UV transparent plate (Greiner BioOne, Frickenhausen, Germany) Spectra were collected after 5 days using a Biotek Synergy HT plate reader over the range of 300-700 nm and compared to blank samples of silver nitrate only, or of the peptide only.
Peptide stock solution was diluted to a final concentration of 5 mg/ml in double distilled water. Then metal salt (AgNO3) was added to the sample and the samples were analyzed by TEM or HR-SEM. AgNO3 concentration was determined according to the final catechol concentration in the peptide, with a constant ratio of [AgNO3]/[Catechol]=0.0723.
Silver deposition was done by preparing 15 mM peptide solutions and removing residual peptide monomers. This was done by centrifugation at 12,000 RPM for 15 min, discarding the supernatant and resuspention in ultra-pure water. This procedure was repeated once more. Samples for electron microscopy were taken as control and the solution was centrifuged at 12,000 RPM for 15 min and resuspended in an aqueous solution of 2.17 mM AgNO3 for 15 min Finally, the solution was centrifuged at 9000 RPM for 10 min and resuspended in water. Samples for electron microscopy were taken again.

[2] = AFM force mapping adhesion measurements with colloidal probe (Embodiment 2); format: physicochemical; details: for mean adhesion force from force map histogram: tip velocity 1000 nm/s, compressive force 20 nN
Method: In an alternative embodiment, AFM analysis was performed using an Asylum MFP-1D AFM instrument (Asylum Research, Santa Barbara, Calif., USA).
The AFM measurment was performed by emploting force mapping while simultaneously providing nanoscale topographical and mechanical information about the hydrogel. Force mapping involves generating individual force curves at discrete points on a material, which are then used to calculate stiffness and height values.
(§1) After overnight incubation, 10 μL of each sample were deposited on a glass slide and dried at room temperature. Force measurements of the samples were conducted using a SiO2 colloidal probe (tip velocity 1000 nm/s, compressive force 20 nN). To investigate the glass surface area morphology after peeling, 30 μL of freshly prepared Fmoc-DOPA-DOPA-Lys solutions (12.5 mg/mL, prepared in DMSO or ethanol as described above) were deposited between two microscope glass slides. This construct was incubated overnight at room temperature under 100 mg weight Finally, the upper glass slide was peeled off and the contact area of either slide was imaged using an Ultrasharp AFM probe (NSC21/Ti-Pt, MikroMasch) operated in tapping mode.

[3] = Thermal perturbation of assemblies (temperature-dependent CD, FTIR, TEM); format: physicochemical; details: 0.15 mM in water, stepwise 18° C. to 90° C. and back
Method: CD spectra were collected as described above except that the spectra were obtained throughout temperature variation done in a stepwise fashion up and then down. […] (in the following steps: 25° C., 37° C., 50° C., 70° C., 90° C., 70° C., 50° C., 37° C., 25° C.). The sample was allowed to equilibrate for 10 min and the temperature was monitored by a thermocouple in the cuvette holder block. At the end of the measurments, the cuvette content was sampled for TEM and FTIR analysis as described above. As control, TEM and FTIR samples were taken from an aliquot of the same solution which was not subjected to temperature variations.

[4] = Rheological measurements of in situ-formed hydrogel; format: physicochemical; details: 5 mg/mL
Method: Rheological measurements for in situ-formed Fmoc-DOPA-DOPA hydrogel were performed using an AR-G2 rheometer (TA Instruments, New Castle, Del., USA). Time-sweep oscillatory tests in 20 mm parallel plate geometry were conducted at 0.7% strain and 1 Hz frequency on 200 μL of fresh solution (resulting in a gap size of about 0.6 mm), 1 min after its preparation. In order to determine the linear viscoelastic region oscillatory strain (0.01-100%) and frequency sweep (0.01-100 Hz) tests were conducted 45 min after diluting the stock solution with Milli-Q water. All rheology tests were done in triplicates and averaged.

[5] = Macroscopic adhesion of two glass slides and peeling; format: physicochemical; details: prepared in ethanol or DMSO
Method: as §1

Compound: 3,4-dihydroxyphenyl-L-alanine-(3,4-dihydroxyphenyl-L-alanine) [DOPA-DOPA]
reduction of ionic silver / silver deposition on assemblies [1]: formation of silver particles

mean adhesion force from force map histogram ([2]; 1 mg/ml in 1% ethanol, one day of assembly): 31±10.6 nN
Compound: O=C(N[C@@H](Cc1ccc(O)c(O)c1)C(=O)O)OCC1c2ccccc2-c2ccccc21 [Fmoc-DOPA]

Compound: D[Dopa]NK[Dopa]
reduction of ionic silver / silver deposition on assemblies [1]: possess the ability to reduce ionic silver | stability of the ultrastructure to elevated temperature [3]: ultrastructure is impaired by elevated temperatures

Compound: Fmoc-DOPA-DOPA
reduction of ionic silver / silver deposition on assemblies [1]: seamless coating of the peptide assemblies was clearly observed | storage modulus at 25° C. or 37° C. relative to hydrogels formed at 4° C. [4]: approximately 40 fold | storage modulus (G′) versus loss modulus (G″) in the linear region ([4]; 25° C.): more than one order of magnitude larger than the loss modulus | mean adhesion force from force map histogram ([2]; 5 mg/ml in 5% ethanol): 36±11 nN

adhesion force (force map) ([2]; 1.25 wt% (12.5 mg/mL) prepared in 12.5% DMSO and water): > 300 nN | adhesion force (force map) ([2]; 1.25 wt% (12.5 mg/mL) prepared in 12.5% ethanol and water): more than 214 nN
Compound: Fmoc-DOPA-DOPA-Lys
macroscopic adhesive properties [5]: capable of gluing together two glass slides
